The source of these data is patent publication US20230159467A1, “NOVEL COMPOUNDS USEFUL IN THE TREATMENT AND/OR PREVENTION OF A DISEASE, DISORDER OR CONDITION ASSOCIATED WITH ANGIOTENSIN II” (Vicore Pharma AB, priority 2020, published 2023).

In data set [1] the target is T1, human AT2R (Homo sapiens, UniProt P50052).
T1 construct: host or cells: HEK-293
T1 sequence (P50052 1-363): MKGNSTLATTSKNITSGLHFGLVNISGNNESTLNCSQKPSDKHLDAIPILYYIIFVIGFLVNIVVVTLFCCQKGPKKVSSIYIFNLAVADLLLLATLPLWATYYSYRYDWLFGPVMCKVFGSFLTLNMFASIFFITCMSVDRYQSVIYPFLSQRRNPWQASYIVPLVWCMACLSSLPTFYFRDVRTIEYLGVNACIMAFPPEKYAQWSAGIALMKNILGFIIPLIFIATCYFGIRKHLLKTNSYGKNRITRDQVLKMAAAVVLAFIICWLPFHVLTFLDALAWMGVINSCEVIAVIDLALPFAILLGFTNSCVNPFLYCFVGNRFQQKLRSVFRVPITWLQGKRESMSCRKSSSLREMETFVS
The data set is classed as binding. The settings on record: HEK-293 cell membranes.

A short description of data set [2]: Stability in human liver microsomes. In kind it is in vitro ADME. As to conditions: half-life. As for the experimental part:
Stability in liver microsomes. Human, mouse and rat liver microsomes were used to assess the metabolic stability for the compounds. Metabolic stability was determined in 0.5 mg/mL human, mouse or rat liver microsomes at a compound concentration of 1 μM in 100 mM potassium phosphate buffer (pH 7.4) in a total incubation volume of 500 μL by Eurofins. The assay matrix was: human liver microsomes: mixed gender and pool of 50, rat liver microsomes: male, Sprague-Dawley, pool of 100 or more and mouse liver microsomes: male,CD-1, pool of 250 or more. Final microsomal protein concentration: 0.1mg/mL. The test concentration was 0.1 μM with 0.01% DMSO, 0.25% acetonitrile and 0.25% methanol by default. […] The reaction was initiated by adding NADPH-generating system and was incubated for 0, 15, 30, 45, and 60 min. The reaction was stopped by transferring the incubation mixture to acetonitrile/methanol. Samples were then mixed and centrifuged. Four reference compounds were tested in each assay. Propranolol and imipramine are relatively stable, whereas verapamil and terfenadine are readily metabolized inhuman liver microsomes. Samples were analyzed by HPLC-MS/MS using selected reaction monitoring. The HPLC system consisted of a binary LC pump with autosampler, a C-18 column, and a gradient. Peak areas corresponding to the test compound were recorded. The compound remaining was calculated by comparing the peak area at each time point to time zero. The half-life was calculated from the slope of the initial linear range of the logarithmic curve of compound remaining (%) vs. time, assuming first order kinetics. In addition, the intrinsic clearance (Clint) was calculated.^19,20
A general note: Liver microsomes are vesicles of endoplasmic reticulum, rich in cytochrome P450 enzymes.

The target of data set [3] is T2, human AT1R (Homo sapiens, UniProt P30556).
T2 construct: host or cells: HEK-293
T2 sequence (P30556 1-359): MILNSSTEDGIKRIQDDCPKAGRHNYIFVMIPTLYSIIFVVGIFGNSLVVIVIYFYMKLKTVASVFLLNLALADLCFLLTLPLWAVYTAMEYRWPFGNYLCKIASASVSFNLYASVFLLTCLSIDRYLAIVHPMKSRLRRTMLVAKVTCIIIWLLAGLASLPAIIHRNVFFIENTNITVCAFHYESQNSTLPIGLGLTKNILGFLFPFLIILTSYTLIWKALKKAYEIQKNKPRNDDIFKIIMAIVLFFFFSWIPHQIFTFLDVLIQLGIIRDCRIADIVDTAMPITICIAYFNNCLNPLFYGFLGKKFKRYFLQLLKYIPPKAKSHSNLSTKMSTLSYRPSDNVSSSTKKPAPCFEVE
The data set is classed as binding. The settings on record: HEK-293 cell membranes.

What is called Ki is a dissociation constant, usually derived from enzyme kinetics or from competition with a known ligand. Read a low Ki as tighter binding.

The compound `COC(=O)NS(=O)(=O)c1sc(CC(C)C)cc1-c1ccc(Cn2ccnc2C(C)(C)F)cc1` [Example 43] displayed an inhibition constant Ki in data set [1] of 3.74 nM.
In the case of `COC(=O)NS(=O)(=O)c1sc(CC(C)C)nc1-c1ccc(Cn2ccnc2C(C)O)cc1` (stereo not drawn) [Example 23, Methyl ((4-(4-((2-(1-hydroxyethyl)-1H-imidazol-1-yl)methyl)phenyl)-2-isobutylthiazol-5-yl)sulfonyl)carbamate], in data set [2], the “Stability in liver microsomes HLM” value is given as more than 60 min.
`CCCc1nc(-c2ccc(Cn3ccnc3C(C)(C)C)cc2)c(S(=O)(=O)NC(=O)OC)s1` [Example 5, Methyl ((4-(4-((2-(tert-butyl)-1H-imidazol-1-yl)methyl)phenyl)-2-propylthiazol-5-yl)sulfonyl)carbamate]: the Ki in data set [1] was 190 nM; in data set [3], approximately 1000 nM.
As to `COC(=O)NS(=O)(=O)c1sc(CC(C)C)nc1-c1ccc(Cn2ccnc2C(C)C)cc1` [Example 20, Methyl ((2-isobutyl-4-(4-((2-isopropyl-1H-imidazol-1-yl)methyl)phenyl)thiazol-5-yl)sulfonyl)carbamate], the Ki in data set [1] was determined as 27 nM. Further, the “Stability in liver microsomes HLM” value in data set [2] is more than 60 min.
Regarding `CCCCOC(=O)NS(=O)(=O)c1ccc(CC(C)C)cc1-c1ccc(Cn2ccnc2C(C)(C)C)cc1` [Example 2A, Butyl ((4′-((2-(tert-butyl)-1H-imidazol-1-yl)methyl)-5-isobutyl-[1,1′-biphenyl]-2-yl)sulfonyl)carbamate], the Ki in data set [1] was 15 nM; in data set [3] it was approximately 10000 nM.
With `CCCCOC(=O)NS(=O)(=O)c1sc(CCC)nc1-c1ccc(Cn2ccnc2-c2nccs2)cc1` [Example 21, Butyl ((2-propyl-4-(4-((2-(thiazol-2-yl)-1H-imidazol-1-yl)methyl)phenyl)thiazol-5-yl)sulfonyl)carbamate], the Ki in data set [1] amounted to 350 nM; in data set [3], 1000 nM.
Turning to `CCCCOC(=O)NS(=O)(=O)c1sc(CCC)nc1-c1ccc(Cn2ccnc2C(C)(C)C)cc1` [Example 6, Butyl ((4-(4-((2-(tert-butyl)-1H-imidazol-1-yl)methyl)phenyl)-2-propylthiazol-5-yl)sulfonyl) carbamate], the Ki was 71 nM in data set [1] and approximately 1000 nM in data set [3].
As for `COC(=O)NS(=O)(=O)c1ccc(CC(C)C)cc1-c1ccc(Cn2ccnc2C2CC2)cc1` [Example 39A, Methyl ((5-isobutyl-4′-((2-(cyclopropan-2-yl)-1H-imidazol-1-yl)methyl)-[1,1′-biphenyl]-2-yl)sulfonyl)carbamate], in data set [1], the inhibition constant Ki came to 4.8 nM.
Same read-out and setting: with `CCCCOC(=O)NS(=O)(=O)c1sc(CC(C)C)cc1-c1ccc(Cn2ccnc2C(C)(C)F)cc1` [Example 42] the figure was 1.66 nM; with `CCCCOC(=O)NS(=O)(=O)c1ccc(CC(C)C)cc1-c1ccc(Cn2ccnc2C2CC2)cc1` [Example 38A, Butyl ((5-isobutyl-4′-((2-(cyclopropan-2-yl)-1H-imidazol-1-yl)methyl)-[1,1′-biphenyl]-2-yl)sulfonyl)carbamate], 5.64 nM.
Take `COC(=O)NS(=O)(=O)c1sc(CC(C)C)nc1-c1ccc(Cn2ccnc2C2CC2)cc1` [Example 26, Methyl ((4-(4-((2-cyclopropyl-1H-imidazol-1-yl)methyl)phenyl)-2-isobutylthiazol-5-yl)sulfonyl)carbamate]: the Ki was determined as 99 nM in data set [1] and 13000 nM in data set [3].
On to `COC(=O)NS(=O)(=O)c1sc(CC(C)C)cc1-c1ccc(Cn2ccnc2C(C)(C)O)cc1` [Example 41], for which the Ki in data set [1] was found to be 3.08 nM.
For `CCCCOC(=O)NS(=O)(=O)c1sc(CCC)nc1-c1ccc(Cn2ccnc2C2CC2)cc1` [Example 29, Butyl ((4-(4-((2-cyclopropyl-1H-imidazol-1-yl)methyl)phenyl)-2-propylthiazol-5-yl)sulfonyl)carbamate], the inhibition constant (Ki) is 36 nM in data set [1] and 15000 nM in data set [3].
The matching figures for `CCCCOC(=O)NS(=O)(=O)c1sc(CC(C)C)nc1-c1ccc(Cn2ccnc2C2CC2)cc1` [Example 27, Butyl ((4-(4-((2-cyclopropyl-1H-imidazol-1-yl)methyl)phenyl)-2-isobutylthiazol-5-yl)sulfonyl)carbamate]: 11 nM and 8000 nM.
As to `CCCc1nc(-c2ccc(Cn3ccnc3C(C)(C)F)cc2)c(S(=O)(=O)NC(=O)OC)s1` [Example 46, Methyl ((4-(4-((2-(2-fluoropropan-2-yl)-1H-imidazol-1-yl)methyl)phenyl)-2-propylthiazol-5-yl)sulfonyl)carbamate], the Ki in data set [1] was more than 1000 nM.
Consider `CCCCOC(=O)NS(=O)(=O)c1ccc(CC(C)C)cc1-c1ccc(Cn2ccnc2-c2nccs2)cc1` [Example 35B, Potassium (butoxycarbonyl) ((5-isobutyl-4′-((2-(thiazol-2-yl)-1H-imidazolyl)methyl)-[1,1′-biphenyl]-2-yl)sulfonyl)amide], for which the figures for the Ki in data set [1] and in data set [3] were 6.7 nM and 7000 nM, respectively.
In data set [1], `CCCCOC(=O)NS(=O)(=O)c1sc(CCC)nc1-c1ccc(Cn2ccnc2C(C)(C)F)cc1` [Example 45, Butyl ((4-(4-((2-(2-fluoropropan-2-yl)-1H-imidazol-1-yl)methyl)phenyl)-2-propylthiazol-5-yl)sulfonyl)carbamate] yielded a Ki of more than 1000 nM.
Turning to `CCCc1nc(-c2ccc(Cn3ccnc3C3CC3)cc2)c(S(=O)(=O)NC(=O)OC)s1` [Example 28, Methyl ((4-(4-((2-cyclopropyl-1H-imidazol-1-yl)methyl)phenyl)-2-propylthiazol-5-yl)sulfonyl)carbamate], the Ki in data set [1] was found to be 274 nM; in data set [3], 20000 nM.
For the compound `CCCCOC(=O)[N-]S(=O)(=O)c1ccc(CCC)cc1-c1ccc(Cn2ccnc2C(C)(C)O)cc1.[K+]` [Example 31B, Potassium (butoxycarbonyl) ((4′-((2-(2-hydroxypropan-2-yl)-1H-imidazol-1-yl)methyl)-5-propyl-[1,1′-biphenyl]-2-yl)sulfonyl)amide], the “Stability in liver microsomes HLM” value in data set [2] is 20 min.
In data set [1], `COC(=O)NS(=O)(=O)c1ccc(CC(C)C)cc1-c1ccc(Cn2ccnc2C(C)C)cc1` [Example 36, Methyl ((5-isobutyl-4′-((2-(isopropan-2-yl)-1H-imidazol-1-yl)methyl)-[1,1′-biphenyl]-2-yl)sulfonyl)carbamate] registered a Ki of 3.26 nM.
On the same count and under the same terms, to `CCCc1nc(-c2ccc(Cn3ccnc3C(C)O)cc2)c(S(=O)(=O)NC(=O)OC)s1` (stereo not drawn) [Example 25, Methyl ((4-(4-((2-(1-hydroxyethyl)-1H-imidazol-1-yl)methyl)phenyl)-2-propylthiazol-5-yl)sulfonyl)carbamate] belongs 1600 nM; to `CCCCOC(=O)NS(=O)(=O)c1ccc(CC(C)C)cc1-c1ccc(Cn2ccnc2C(C)C)cc1` [Example 37A, Butyl ((5-isobutyl-4′-((2-(isopropan-2-yl)-1H-imidazol-1-yl)methyl)-[1,1′-biphenyl]-2-yl)sulfonyl)carbamate], 2.22 nM; to `CCCCOC(=O)NS(=O)(=O)c1sc(CC(C)C)cc1-c1ccc(Cn2ccnc2C(C)(C)O)cc1` [Example 40A], 9.62 nM.
Same read-out and setting: with `COCCOC(=O)NS(=O)(=O)c1sc(CC(C)C)cc1-c1ccc(Cn2ccnc2C(C)(C)C)cc1` [Example 44] the figure was 2.54 nM; with `CCCCOC(=O)NS(=O)(=O)c1sc(CC(C)C)nc1-c1ccc(Cn2ccnc2C(C)(C)F)cc1` [Example 47, Butyl ((4-(4-((2-(2-fluoropropan-2-yl)-1H-imidazol-1-yl)methyl)phenyl)-2-isobutylthiazol-5-yl)sulfonyl)carbamate], 56 nM; with `COC(=O)NS(=O)(=O)c1sc(CC(C)C)nc1-c1ccc(Cn2ccnc2C(C)(C)F)cc1` [Example 48, Methyl ((4-(4-((2-(2-fluoropropan-2-yl)-1H-imidazol-1-yl)methyl)phenyl)-2-isobutylthiazol-5-yl)sulfonyl)carbamate], 475 nM.
